One experiment relates to Notch3 receptor. As to the kind of experiment: Western blot analysis of Notch3 receptor in membrane fraction of MDA-MB-231 cells. The experiment is classed as cell-based, human. How it is done: MDA-MB-231 cells (0.8×10^6) were seeded on five 75 cm^2 flasks in 25 ml DMEM (41965039 Gibco) medium comprising 10% fetal bovine serum (FBS), Gentamycin Sulfate (03-035-1C Biological industries) and Amphotericin B (03-029-1C Biological industries). Cells were incubated overnight in an incubator. […]
Media was then removed and the cells were scrapped off the flask by a cell scraper into 1.8 ml fresh DMEM media. Cells were collected into 2 ml Eppendorf tubes in two fractions: cytosolic proteins and membrane proteins that were extracted by Membrane Protein Extraction Kit (Thermo scientific #89842). Protease inhibitors (Sigma p2714) and phosphatase inhibitors (Sigma P5726) were added to the Permeabilization and Solubilization Buffers, as recommended by the manufacturer.
Samples were prepared for western blotting as follows: sample buffer (invitrogen cat #NP0007, 4-fold concentrated) and sample reducing agent (Invitrogen cat #NP0009, 10-fold concentrated) were added to each sample and the samples were boiled for 5 minutes. […]
The membrane was washed 3 times using TBST, and the secondary antibody αRabbit-HRP was then added (dilution 1:5000 in 5% milk in TBST) for an incubation of 1 hour at room temperature, with agitation. […] Notch 3 antibody was applied to the membrane and the quantitation of the protein was preformed and calibrated with beta-actin protein.
(In general: In western blotting, separated proteins are transferred to a membrane and probed.)

Experiment [1] concerns human ovarian cancer cells (OV90). As to the kind of experiment: Relative tumor volume in nude mice inoculated with human ovarian cancer cells. The conditions noted are these: OV90 tumors. Type of experiment: in vivo.
Description: During the treatment period, each mouse was weighted, and the tumor size was measured by Digital caliper.
When the tumors exceeded a volume of 40 mm^3 or 50 mm^3 (for OV90 and Panc1, respectively), the mice were randomly divided into four groups of 8 mice each, as follows. A control group was treated with saline only, the APC1-treated group was treated three times a week with doses of APC1 at 15 mg/kg each, the doxorubicin and APC treated group was treated twice a week with doses of APC1 (at 15 mg/kg each) and once a week with doxorubicin (at 3 mg/kg) and the doxorubicin-treated group was treated with doxorubicin only, once a week at a dose of 3 mg/kg. These dosing protocols were repeated throughout the experiment, namely for 5 weeks.
Experiment [2] deals with TNBC cancer cells MDA-MB-231 and MDA-MB-468. As to the kind of experiment: Glutathione level in TNBC cells treated with APC1. Type of experiment: cell-based, human. The conditions noted are these: TNBC cancer cells (FIG. 18C). How it is done: Gluthatione Assay Kit (Sigma CS0260);
Cell lines (MDA-MB-231, MDA-MB-468) were grown in 75 cm^2 cell culture flask, reached 80-90% confluence. The cells were treated with APC1 (250 μg/ml, 2 times per week for 1 week).
Cells were washed twice with 10 ml PBS, PBS (5 ml) was added and the cells were collected by scrapping, centrifuged at 300G, 4° C. for 5 minutes, the supernatant was then discarded and the cells were treated with APC1 as indicated above. The values of the Glutathione Standard Solutions were used to determine the standard curve and the delta A412/min equivalent to 1 nmole of reduced glutathione per well was calculated according to manufacturer's instructions.
As detailed above, the ovarian cancer cells OV90 and OV3, the pancreatic cancer cells BxPC3 and Panel and the TNBC cancer cells MDA-MB-231 and MDA-MB-468 were treated with APC1 and then the relative glutathione levels in these cells was measured as detailed above.

With “EKGAAFSPIYPRRK (C terminal peptide of KTPAF50) [APC1, polypeptide consisting of the 14 C-terminal amino acid residues of the peptide KTPAF50]”, the “incubation period with highest Notch3 expression” value with Notch3 receptor (APC1 250 μg/ml, 1, 3, 5 or 24 hours) is “highest for incubations periods of 3 and 5 hours”. Moreover, the “expression of active Notch3 receptor on the cell membrane” value with Notch3 receptor (APC1 250 μg/ml, membrane protein fraction) is given as “increase”. Further, the “effect on tumor volume compared with doxorubicin-treated group” value in experiment [1] (APC1 15 mg/kg three times a week) was “more pronounced”. Also, the relative tumor volume entry in experiment [1] (APC1 15 mg/kg, doxorubicin 3 mg/kg once a week, 5 weeks, control increased linearly) is recorded as “modest increases”. For the same sequence, the level of glutathione result in experiment [2] is recorded as “decreased”.

These data come from patent publication US12071488B2, “Method of sensitizing cancer cells to anti-cancer treatment” (TWO TO BIOTECH LTD., priority 2017, dated 2024).
